The values below are quoted from earlier work in patent publication US10927398B2, “Compositions for CYP450 phenotyping using saliva samples” (Concordia University, Inc., priority 2015, dated 2021).

Read-outs that look alike come from different tables or passages of the source.

For data set [1] the following is noted: cited from earlier work.
For data set [2] the following is noted: cited from earlier work. This is another data set of the same source.
For data set [3], the system named is plasma protein. The settings on record: cited from earlier work.
Setting [4] is: Table of Exemplary Drugs, CYP3A4.
[5] abbreviates: Table of Exemplary Drugs, CYP1A2.
Where [6] appears, read: Table of Exemplary Drugs, CYP2C9.
Setting [7] is: Table of Exemplary Drugs, CYP2C19.
[8] abbreviates: Table of Exemplary Drugs, CYP2D6.

For `Fc1ccccc1C1=NCC(=S)N(CC(F)(F)F)c2ccc(Cl)cc21` [Quazepam (Doral), Quazepam], in data set [1] (setting [4]), the “HALF-LIFE” value was 25 to 41 h. Also, the “ORAL BIOAVAILABILITY” value in data set [2] (setting [4]) is given as 29-35%. The “PLASMA PROTEIN BINDING” value in data set [3] (setting [4]) is on record as above 95%.

In the case of `CN(C)CCC=C1c2ccccc2CCc2ccccc21` [Amitriptyline], the “HALF-LIFE” value in data set [1] (setting [5]) was around 13 to 36 h; in data set [1] (setting [6]), 15 h; in data set [1] (setting [7]), 15 h; in data set [1] (setting [8]), around 13 to 36 h. Besides, the “ORAL BIOAVAILABILITY” value in data set [2] (setting [5]) was ~43-46%; in data set [2] (setting [6]), 30-60%; in data set [2] (setting [7]) it was 30-60%; in data set [2] (setting [8]), ~43-46%. The “PLASMA PROTEIN BINDING” value in data set [3] (setting [5]), in data set [3] (setting [6]), in data set [3] (setting [7]) and in data set [3] (setting [8]) was above 90% each time.

As for `CN(C)CCC=C1c2ccccc2C=Cc2ccccc21` [Cyclobenzaprine], the “HALF-LIFE” value in data set [1] (setting [5]) was 8 to 37 h. In addition, the “ORAL BIOAVAILABILITY” value in data set [2] (setting [5]) is 33-55%. For the same molecule, the “PLASMA PROTEIN BINDING” value in data set [3] (setting [5]) was 93%.

In the case of `C#Cc1cccc(Nc2ncnc3cc(OCCOC)c(OCCOC)cc23)c1` [Erlotinib], in data set [1] (setting [5]), the “HALF-LIFE” value is 36.2 h. Moreover, the results for the “ORAL BIOAVAILABILITY” value in data set [2] (setting [5]) and in data set [2] (setting [4]) were 60-100% and 60%, respectively. Besides, the “PLASMA PROTEIN BINDING” value in data set [3] (setting [5]) and in data set [3] (setting [4]) was 93% each time.

As for `Cc1ncc2n1-c1ccc(Cl)cc1C(c1ccccc1F)=NC2` [Midazolam (Versed), Midazolam], in data set [1] (in vivo), the “HALF-LIFE” value was 3 to 6 h. Also, the “ORAL BIOAVAILABILITY” value in data set [2] (in vivo, po) is reported as “PO: 36%”. In addition, the “PLASMA PROTEIN BINDING” value in data set [3] (setting [4]) is given as 97%.

Regarding `CCN[C@@H](C)Cc1cccc(C(F)(F)F)c1` [Dexfenfluramine], the “HALF-LIFE” value in data set [1] (in vivo) is 17 to 20 h. Moreover, the “ORAL BIOAVAILABILITY” value in data set [2] (in vivo, po) is recorded as 68%. Besides, the “PLASMA PROTEIN BINDING” value in data set [3] (setting [8]) is recorded as 36%.

On to `C=CC[C@@H]1/C=C(\C)C[C@H](C)C[C@H](OC)[C@H]2O[C@@](O)(C(=O)C(=O)N3CCCC[C@H]3C(=O)O[C@H](/C(C)=C/[C@@H]3CC[C@@H](O)[C@H](OC)C3)[C@H](C)[C@@H](O)CC1=O)[C@H](C)C[C@@H]2OC` [Tacrolimus (Prograf), Tacrolimus], for which the “HALF-LIFE” value in data set [1] (setting [4]) is 8.7 to 37.9 h. The “ORAL BIOAVAILABILITY” value in data set [2] (setting [4]) is 17-31%. Also, the “PLASMA PROTEIN BINDING” value in data set [3] (setting [4]) is given as 99%.

Consider `OCCN1CCN(CC/C=C2/c3ccccc3Sc3ccc(Cl)cc32)CC1` [Zuclopenthixol], for which the “HALF-LIFE” value in data set [1] (setting [8]) is 20 h. Besides, the “ORAL BIOAVAILABILITY” value in data set [2] (setting [8]) is reported as 49%. In addition, the “PLASMA PROTEIN BINDING” value in data set [3] (setting [8]) is listed as 98%.

For the molecule `CCC1(c2ccccc2)C(=O)NC(=O)N(C)C1=O` (centres unmarked) [Methylphenobarbital], the “HALF-LIFE” value in data set [1] (in vivo) is 31 to 67 h. Besides, in data set [2] (in vivo, po), the “ORAL BIOAVAILABILITY” value is reported as 50%. Besides, the “PLASMA PROTEIN BINDING” value in data set [3] (plasma) is reported as 70-76% ^.

For the molecule `CN1C(C(=O)Nc2ccccn2)=C(O)c2sc(Cl)cc2S1(=O)=O` [Lornoxicam], the “HALF-LIFE” value in data set [1] (setting [6]) is 4 h. For the same molecule, in data set [2] (cell marked IM, Table of Exemplary Drugs, CYP2C9), the “ORAL BIOAVAILABILITY” value is listed as “IM: 87%”. The “PLASMA PROTEIN BINDING” value in data set [3] (setting [6]) is reported as 99.7%^.

Regarding `Cc1nnc2n1-c1ccc(Cl)cc1C(c1ccccc1)=NC2` [Alprazolam (Xanax), Alprazolam], the “HALF-LIFE” value in data set [1] (setting [4]) was 11 h. In addition, the “ORAL BIOAVAILABILITY” value in data set [2] (setting [4]) is on record as 90%. Further, the “PLASMA PROTEIN BINDING” value in data set [3] (setting [4]) was 80%.

With `COc1ccc2c(c1)c(CC(=O)O)c(C)n2C(=O)c1ccc(Cl)cc1` [Indomethacin], in data set [1] (setting [7]), the “HALF-LIFE” value is 4.5 h. For the same molecule, the “ORAL BIOAVAILABILITY” value in data set [2] (setting [7]) is 100%. The “PLASMA PROTEIN BINDING” value in data set [3] (setting [7]) is 99%.

Turning to `CCCCC1=NC2(CCCC2)C(=O)N1Cc1ccc(-c2ccccc2-c2nnn[nH]2)cc1` [Irbesartan], the “HALF-LIFE” value in data set [1] (setting [6]) is 11 to 15 h. Further, the “ORAL BIOAVAILABILITY” value in data set [2] (setting [6]) is recorded as 60-80%. Besides, in data set [3] (setting [6]), the “PLASMA PROTEIN BINDING” value was 90%.

With `CC(C)N(CCC(C(N)=O)(c1ccccc1)c1ccccn1)C(C)C` (centres unmarked) [Disopyramide (Norpace), Disopyramide], the “HALF-LIFE” value in data set [1] (setting [4]) was 6.7 h. In addition, in data set [2] (setting [4]), the “ORAL BIOAVAILABILITY” value is given as 80%. In data set [3] (setting [4]), the “PLASMA PROTEIN BINDING” value is listed as 50-65% ^.

Take `O=C(O[C@H]1CN2CCC1CC2)N1CCc2ccccc2[C@@H]1c1ccccc1` [Solifenacin (Vesicare), Solifenacin]: in data set [1] (in vivo), the “HALF-LIFE” value is 45 to 68 h. Further, the “ORAL BIOAVAILABILITY” value in data set [2] (in vivo, po) is listed as 90%. Besides, in data set [3] (plasma), the “PLASMA PROTEIN BINDING” value was 98%.

Take `COc1ccc2c3c1O[C@H]1C(=O)CC[C@@]4(O)[C@@H](C2)N(C)CC[C@]314` [Oxycodone]: the “HALF-LIFE” value in data set [1] (setting [8]) and in data set [1] (setting [4]) was 5.6 h in each case. Also, the “ORAL BIOAVAILABILITY” value in data set [2] (setting [8]) and in data set [2] (setting [4]) was 60-87% each time. Also, the “PLASMA PROTEIN BINDING” value in data set [3] (setting [8]) and in data set [3] (setting [4]) was 45% throughout.

With `CN(C)CCCN1c2ccccc2Sc2ccc(Cl)cc21` [Chlorpromazine], in data set [1] (setting [8]), the “HALF-LIFE” value was 6 h. Also, the “ORAL BIOAVAILABILITY” value in data set [2] (setting [8]) is listed as 32%. Further, the “PLASMA PROTEIN BINDING” value in data set [3] (setting [8]) is listed as 90-99% ^.

`COc1ccc2c3c1O[C@H]1C(=O)CC[C@H]4[C@@H](C2)N(C)CC[C@]314` [Hydrocodone]: the “HALF-LIFE” value in data set [1] (in vivo) is 7 to 9 h. For the same molecule, in data set [2] (in vivo, po), the “ORAL BIOAVAILABILITY” value is 25%. Further, the “PLASMA PROTEIN BINDING” value in data set [3] (setting [8]) was 19-45% ^.

`CCC1(c2ccccc2)C(=O)NC(=O)NC1=O` [Phenobarbital]: the “HALF-LIFE” value in data set [1] (in vivo) was 36 to 120 h. Also, the “ORAL BIOAVAILABILITY” value in data set [2] (in vivo, po) is 80-100%. Moreover, the “PLASMA PROTEIN BINDING” value in data set [3] (plasma) is reported as 20-60% ^.

For the molecule `CCOc1ccccc1OCCN[C@H](C)Cc1ccc(OC)c(S(N)(=O)=O)c1` [Tamsulosin (Flomax), Tamsulosin], the “HALF-LIFE” value in data set [1] (setting [4]) is 9 to 15 h. Moreover, the “ORAL BIOAVAILABILITY” value in data set [2] (setting [4]) is on record as above 90%. For the same molecule, the “PLASMA PROTEIN BINDING” value in data set [3] (setting [4]) is 94-99% ^.

With `Cc1ccnc2c1NC(=O)c1cccnc1N2C1CC1` [Nevirapine (Viramune), Nevirapine], the “HALF-LIFE” value in data set [1] (setting [4]) was 25 to 45 h. Besides, in data set [2] (setting [4]), the “ORAL BIOAVAILABILITY” value is reported as 80-94%. In data set [3] (setting [4]), the “PLASMA PROTEIN BINDING” value is reported as 60%.

For the molecule `COc1ccccc1OCCNCC(O)COc1cccc2[nH]c3ccccc3c12` (centres unmarked) [Carvedilol], in data set [1] (setting [8]), the “HALF-LIFE” value is 6 to 10 h. Moreover, the “ORAL BIOAVAILABILITY” value in data set [2] (setting [8]) is listed as 25-35%. Further, the “PLASMA PROTEIN BINDING” value in data set [3] (setting [8]) is given as 95-98% ^.

In the case of `Cc1cccc(C)c1OCC(C)N` (centres unmarked) [Mexiletine], the results for the “HALF-LIFE” value in data set [1] (setting [5]) and in data set [1] (setting [8]) were 10 to 12 h and 6 to 17 h, respectively. Also, the “ORAL BIOAVAILABILITY” value is given as 90% in data set [2] (setting [5]) and 80-90% in data set [2] (setting [8]). For the same molecule, the “PLASMA PROTEIN BINDING” value in data set [3] (setting [5]) is recorded as 50-60% ^; in data set [3] (setting [8]) it was 50-70% ^.

On to `CCN1CCC[C@H]1CNC(=O)c1c(OC)ccc(Br)c1OC` [Remoxipride], for which the “HALF-LIFE” value in data set [1] (setting [8]) is 3 to 6 h. Also, in data set [2] (setting [8]), the “ORAL BIOAVAILABILITY” value is reported as 96%. Besides, the “PLASMA PROTEIN BINDING” value in data set [3] (setting [8]) was 5-6%.

As to `CCC[C@@]1(CCc2ccccc2)CC(O)=C([C@H](CC)c2cccc(NS(=O)(=O)c3ccc(C(F)(F)F)cn3)c2)C(=O)O1` [Tipranavir (Aptivus), Tipranavir], the “HALF-LIFE” value in data set [1] (setting [4]) is 5.5 to 6 h. For the same molecule, the “ORAL BIOAVAILABILITY” value in data set [2] (setting [4]) is reported as 30?%. The “PLASMA PROTEIN BINDING” value in data set [3] (setting [4]) is reported as 99.9%^.

In the case of `COc1ccc2cccc(CCNC(C)=O)c2c1` [Agomelatine], the “HALF-LIFE” value in data set [1] (setting [5]) is 1 to 2 h. For the same molecule, in data set [2] (setting [5]), the “ORAL BIOAVAILABILITY” value is below 5%. Also, the “PLASMA PROTEIN BINDING” value in data set [3] (setting [5]) is 95%.
